Assays:
[1] = system: SEM cells; test: cell viability relative to DMSO control; higher = less cytotoxic; details: 48 h
In short: (§1)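 Library compounds in DMSO were pin-dosed in an 11-point threefold series (47 μM to 0.79 nM) onto leukemia cells in 1536-well plates (5 μl). Plates held 500 cells/well of NOMO1 or SEM or 1000 cells/well of P12-Ichikawa, each adapted for at least four passages in each medium. Luminescence was read with CellTiter-Glo One after 48 h at 37°C. Viability means the per-plate percentage relative to DMSO wells, using cell-free wells as background.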

[2] = system: SEM cells; test: AUC of viability dose-response curve (% viability x log10 dose units); higher = less sensitive; details: 48 h
In short: (§2)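 In 1536-well plates, leukemia cells adapted to each medium (500 or 1000 cells/well) were exposed for 48 h at 37°C to library compounds in DMSO across 11 threefold doses, 47 μM down to 0.79 nM. Viability was read by CellTiter-Glo One luminescence and normalised per plate to DMSO and cell-free wells. A four-parameter log-logistic fit over log10 doses was integrated by trapezoidal rule. This yielded the area under the curve, with over-full-viability curves scaled and quality-control failures dropped.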

[3] = system: P12-Ichikawa; test: as above; details: 48 h
In short: as §2

[4] = system: NOMO1; test: as above; details: 48 h
In short: as §2

[5] = system: P12-Ichikawa; test: cell viability relative to DMSO control; higher = less cytotoxic; details: HPLM + 10% dialyzed FBS, 48 h
In short: as §1

[6] = system: NOMO1; test: as above; details: RPMI 5 mM glucose + 10% FBS, 48 h
In short: as §1

C[C@@H]1O[C@@H](O[C@H]\2CC[C@]\3(C)[C@@H]4CC[C@]5(C)[C@@H](CC[C@@]5(O)[C@H]4CCC3=C2)C/6=C/OC(=O)/C=C6)[C@H](O)[C@H](O)[C@@H]1O
[1], HPLM + 10% dialyzed FBS
Details | cell viability [%]
0.000781 µM | 124
0.00234 µM | 121
0.00702 µM | 109
0.0211 µM | 79.3
0.0632 µM | 11.6
0.19 µM | 12.5
0.569 µM | 9.21
1.71 µM | 8.61
5.12 µM | 8.87
15.4 µM | 7.79
46.1 µM | 4.4

AUC of viability dose-response curve
Details | [2] | [3] | [4]
HPLM + 10% dialyzed FBS | 173 | 181 | 187
RPMI 5 mM glucose + 10% FBS | 193 | 197 | 214
RPMI 5 mM glucose + 10% dialyzed FBS | 186 | 173 | 193

C[C@H]([C@H]1C\C(=C(CO)/C(=O)O1)C)[C@H]2CC[C@H]3[C@@H]4C[C@H]5O[C@]56[C@@H](O)\C=C/C(=O)[C@]6(C)[C@H]4CC[C@]23C
Details | AUC of viability dose-response curve | cell viability [%]
[2], HPLM + 10% dialyzed FBS | 259 | –
[2], RPMI 5 mM glucose + 10% FBS | 253 | –
[2], RPMI 5 mM glucose + 10% dialyzed FBS | 260 | –
[3], HPLM + 10% dialyzed FBS | 263 | –
[3], RPMI 5 mM glucose + 10% FBS | 258 | –
[3], RPMI 5 mM glucose + 10% dialyzed FBS | 261 | –
[4], HPLM + 10% dialyzed FBS | 271 | –
[4], RPMI 5 mM glucose + 10% FBS | 283 | –
[4], RPMI 5 mM glucose + 10% dialyzed FBS | 286 | –
[5], 0.000781 µM | – | 126
[5], 0.00234 µM | – | 124
[5], 0.00702 µM | – | 123
[5], 0.0211 µM | – | 129
[5], 0.0632 µM | – | 121
[5], 0.19 µM | – | 100
[5], 0.569 µM | – | 11.3
[5], 1.71 µM | – | 7.84
[5], 5.12 µM | – | 5.43
[5], 15.4 µM | – | 3.44
[5], 46.1 µM | – | 1.95
[6], 0.000781 µM | – | 133
[6], 0.00234 µM | – | 123
[6], 0.00702 µM | – | 122
[6], 0.0211 µM | – | 128
[6], 0.0632 µM | – | 119
[6], 0.19 µM | – | 115
[6], 0.569 µM | – | 28.6
[6], 1.71 µM | – | 20.5
[6], 5.12 µM | – | 9.85
[6], 15.4 µM | – | 6.35
[6], 46.1 µM | – | 3.75

COC1=C(OC)C(=O)C(C/C=C(\C)CC/C=C(\C)CC/C=C(\C)CC/C=C(\C)CC/C=C(\C)CC/C=C(\C)CC/C=C(\C)CC/C=C(\C)CC/C=C(\C)CCC=C(C)C)=C(C)C1=O
cell viability [%], [1]
Details | HPLM + 10% dialyzed FBS | RPMI 5 mM glucose + 10% dialyzed FBS
0.000781 µM | 104 | 104
0.00234 µM | 101 | 129
0.00702 µM | 97.5 | 120
0.0211 µM | 92.4 | 106
0.0632 µM | 129 | 112
0.19 µM | 110 | 124
0.569 µM | 60.3 | 56.4
1.71 µM | 53.3 | 43.4
5.12 µM | 138 | 123
15.4 µM | 128 | 126
46.1 µM | 124 | 120

AUC of viability dose-response curve
Details | [2] | [3] | [4]
HPLM + 10% dialyzed FBS | 442 | 453 | 461
RPMI 5 mM glucose + 10% FBS | 469 | 435 | 453
RPMI 5 mM glucose + 10% dialyzed FBS | 456 | 461 | 466

— the supplement of paper PMC11451515
